PubChem BioAssay (NCI)
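96-well plates; 48 h exposure; 5 concentrations. Endpoints by linear interpolation between flanking doses. Not reached: highest tested concentration assigned. The concentration for 50% growth inhibition is given as GI50. The concentration for full growth arrest is given as TGI.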

Tests used:
Experiment in all cases: NCI-60 cell line screen, 48 h
[1] = tested on: A498 renal
[2] = tested on: NCI-H522 lung
[3] = tested on: HOP-62 NSCLC
[4] = tested on: SK-OV-3 ovarian
[5] = tested on: HT29 colon
[6] = tested on: COLO 205 colon
[7] = tested on: NCI-H460 lung
[8] = tested on: EKVX NSCLC
[9] = tested on: U251 CNS
[10] = tested on: HCT-15 colon
[11] = tested on: OVCAR-3 ovarian
[12] = tested on: HOP-92 NSCLC
[13] = tested on: HCT-116 colon
[14] = tested on: SF-539 CNS
[15] = tested on: K-562 leukemia
[16] = tested on: OVCAR-8 ovarian
[17] = tested on: SK-MEL-28 melanoma
[18] = tested on: LOX IMVI melanoma
[19] = tested on: HL-60(TB) leukemia
[20] = tested on: KM12 colon
[21] = tested on: HCC-2998 colon
[22] = tested on: MCF7 breast
[23] = tested on: RPMI-8226 leukemia
[24] = tested on: HS 578T breast
[25] = tested on: MDA-MB-231 breast
[26] = tested on: SNB-19 CNS
[27] = tested on: SK-MEL-2 melanoma
[28] = tested on: ACHN renal
[29] = tested on: MALME-3M melanoma
[30] = tested on: UACC-257 melanoma
[31] = tested on: MDA-MB-435
[32] = tested on: OVCAR-4 ovarian
[33] = tested on: DU-145 prostate
[34] = tested on: NCI-H226 lung
[35] = tested on: SN12C renal
[36] = tested on: MOLT-4 leukemia
[37] = tested on: RXF 393 renal
[38] = tested on: NCI-H23 lung
[39] = tested on: UO-31 renal
[40] = tested on: TK-10 renal
[41] = tested on: UACC-62 melanoma
[42] = tested on: SW-620 colon
[43] = tested on: CCRF-CEM leukemia
[44] = tested on: SK-MEL-5 melanoma
[45] = tested on: BT-549 breast
[46] = tested on: OVCAR-5 ovarian
[47] = tested on: SR leukemia
[48] = tested on: A549 NSCLC
[49] = tested on: PC-3 prostate
[50] = tested on: IGROV1 ovarian
[51] = tested on: SF-295 CNS
[52] = tested on: 786-0 renal
[53] = tested on: CAKI-1 renal
[54] = tested on: SNB-75 CNS
[55] = tested on: NCI/ADR-RES ovarian
[56] = tested on: M14 melanoma
[57] = tested on: T-47D breast
[58] = tested on: SF-268 CNS

Compound `C[C@@H](Oc1ccc(C(=O)NS(=O)(=O)C(C)(C)C)cc1C(F)(F)F)c1ccc(Oc2ccccc2)cn1` has a GI50 [1] of 1.91 µM, a TGI [1] of 6.74 µM and a GI50 [2] of 1.3 µM. For the same compound, the TGI [2] was 5.63 µM, the GI50 [3] was 3.61 µM and the TGI [3] was 17.7 µM. The GI50 [4] was 3.73 µM, the TGI [4] was 15.2 µM and the GI50 [5] was 3.1 µM. It also gave a TGI [5] of 8.38 µM, a GI50 [6] of 2.67 µM and a TGI [6] of 7.95 µM. It also gave a GI50 [7] of 3.7 µM, a TGI [7] of 13.3 µM and a GI50 [8] of 4.35 µM. The TGI [8] was 20.3 µM, the GI50 [9] was 3.18 µM and the TGI [9] was 13.6 µM. The GI50 [10] was 2.53 µM, the TGI [10] was 10.5 µM and the GI50 [11] was 1.88 µM. For the same compound, the TGI [11] was 5.47 µM, the GI50 [12] was 1.78 µM and the TGI [12] was 11.7 µM. It also gave a GI50 [13] of 2.48 µM, a TGI [13] of 11.2 µM and a GI50 [14] of 2.1 µM. It also gave a TGI [14] of 5.62 µM, a GI50 [15] of 1.25 µM and a TGI [15] of 21 µM. For the same compound, the GI50 [16] was 3.27 µM, the TGI [16] was 12.4 µM and the GI50 [17] was 6.63 µM. The TGI [17] was 21.8 µM, the GI50 [18] was 2.8 µM and the TGI [18] was 10.8 µM. For the same compound, the GI50 [19] was 2.4 µM, the TGI [19] was 8.23 µM and the GI50 [20] was 2.28 µM. It also gave a TGI [20] of 11.4 µM, a GI50 [21] of 2.76 µM and a TGI [21] of 11.3 µM. It also gave a GI50 [22] of 2.65 µM, a TGI [22] of 13.6 µM and a GI50 [23] of 2.95 µM. For the same compound, the TGI [23] was 9.87 µM, the GI50 [24] was 3.27 µM and the TGI [24] was 17.9 µM. For the same compound, the GI50 [25] was 3.6 µM, the TGI [25] was 15.5 µM and the GI50 [26] was 3.02 µM. It also gave a TGI [26] of 14 µM, a GI50 [27] of 6.56 µM and a TGI [27] of 23.3 µM. It also gave a GI50 [28] of 3.59 µM, a TGI [28] of 14.5 µM and a GI50 [29] of 10.8 µM. It also gave a TGI [29] of 26.7 µM, a GI50 [30] of 11.9 µM and a TGI [30] of 32.7 µM. It also gave a GI50 [31] of 0.585 µM, a TGI [31] of 2.09 µM and a GI50 [32] of 4.85 µM. The TGI [32] was 19.7 µM, the GI50 [33] was 3.82 µM and the TGI [33] was 14.3 µM. It also gave a GI50 [34] of 2.76 µM, a TGI [34] of 8.5 µM and a GI50 [35] of 4.58 µM. It also gave a TGI [35] of 18.6 µM, a GI50 [36] of 3.65 µM and a TGI [36] of 24.9 µM. The GI50 [37] was 2.25 µM, the TGI [37] was 8.95 µM and the GI50 [38] was 5.14 µM. For the same compound, the TGI [38] was 23.3 µM, the GI50 [39] was 4.78 µM and the TGI [39] was 19.9 µM. For the same compound, the GI50 [40] was 3.05 µM, the TGI [40] was 14.7 µM and the GI50 [41] was 3.09 µM. For the same compound, the TGI [41] was 19.8 µM, the GI50 [42] was 3.18 µM and the TGI [42] was 14.6 µM. For the same compound, the GI50 [43] was 2.52 µM, the TGI [43] was 16.4 µM and the GI50 [44] was 1.68 µM. For the same compound, the TGI [44] was 4.75 µM, the GI50 [45] was 2.06 µM and the TGI [45] was 5.83 µM. The GI50 [46] was 3.46 µM, the TGI [46] was 14 µM and the GI50 [47] was 1.29 µM. It also gave a TGI [47] of 13.7 µM, a GI50 [48] of 5.31 µM and a TGI [48] of 20.5 µM. The GI50 [49] was 3.1 µM, the TGI [49] was 16.1 µM and the GI50 [50] was 2.64 µM. It also gave a TGI [50] of 13.7 µM, a GI50 [51] of 2.21 µM and a TGI [51] of 6.89 µM. It also gave a GI50 [52] of 3.01 µM, a TGI [52] of 13 µM and a GI50 [53] of 2.7 µM. The TGI [53] was 17.7 µM, the GI50 [54] was 2.04 µM and the TGI [54] was 10.8 µM. For the same compound, the GI50 [55] was 3.7 µM, the TGI [55] was 17.2 µM and the GI50 [56] was 1.91 µM. It also gave a TGI [56] of 7.57 µM, a GI50 [57] of 4.46 µM and a TGI [57] of 32.5 µM. It also gave a GI50 [58] of 3.54 µM and a TGI [58] of 17.8 µM.
